Measured values: patent publication US9550792B2, “Polycyclic substituted pyrazole kinase activity inhibitors and use thereof” (priority 2013, dated 2017)
Where “and” joins values, the source holds several entries; their conditions need not be identical. Identical values can stand only once. Like-named read-outs stand apart in the source and are kept apart here.

Key:
[1] = tested on: colon cancer cell line HCT116; assay: Anti-tumor activity in vitro, MTT method; format: cell-based; conditions: Homo sapiens, HCT-116, 48 h
[2] = tested on: resistant breast cancer cell line MCF-7; assay: Anti-tumor activity in vitro, MTT method; conditions: Homo sapiens, MCF7, 48 h, read-out: Resistant MCF7 (IC50/μM)
Method: (§2) MTT method: the dehydrogenase associated with NADP in the mitochondria of living cell is capable of reducing exogenous MTT into insoluble bluish violet crystal (Formazan), which is precipitated in the cell. […] DMSO or Triple liquid (10% SDS-5% isobutanol-0.01 mol/L HCl) is used to dissolve the crystal in the cell. The OD determined at 570 nm by a microplate reader can reflect the amount of the living cell indirectly.
(§3) The crystal is dissolved with DMSO and the detection is performed on a microplate reader.

[3] = tested on: lung cancer cell line A549; assay: Anti-tumor activity in vitro, MTT method; conditions: Homo sapiens, A549, 48 h, read-out: A549 (IC50/μM)
Method: as §2, §3

[4] = tested on: umbilical cord vein endothelium cell line HUVEC; assay: Anti-tumor activity in vitro, MTT method; conditions: Homo sapiens, 48 h, read-out: HUVEC (IC50/μM)
Method: as §2, §3

leukemia cell line K562 = assay: Anti-tumor activity in vitro, MTT method; conditions: Homo sapiens, K562, 48 h, read-out: K562 (IC50/μM)
Method: as §2, §3

leukemia cell line NB4 = assay: Anti-tumor activity in vitro, MTT method; conditions: 48 h, read-out: NB4 (IC50/μM)
Method: as §2, §3

[5] = tested on: stomach cancer cell line MGC803; assay: Anti-tumor activity in vitro, MTT method; conditions: Homo sapiens, MGC-803, 48 h, read-out: MGC803 (IC50/μM)
Method: as §2, §3

Plasma stability = format: in vitro ADME; conditions: rat plasma
Method: (§1) 300 μL blood collected from the rat was mixed with 30 μL methanol and 2 mL ethyl acetate. The samples were vortexed for 3 min and centrifuged at 4000 rpm for 15 min. The supernatant was introduced into another centrifugal tube. The lower layer was repeatedly extracted and then the supernatants were combined and dried with nitrogen gas. After redissolution with 150 μL methanol, they were filtered by 0.22 μm membrane and then subjected to analysis with a injection volume of 20 μL.
[…] The samples were prepared according to the method of 3.1. 20 μL were introduced into the HPLC system and the peak area is recorded for analysis to determine the stability of compound 1 and 2 in plasma.

[6] = tested on: liver cancer cell line HEPG2; assay: Anti-tumor activity in vitro, MTT method; conditions: Homo sapiens, HepG2, 48 h, read-out: HEPG2 (IC50/μM)
Method: as §2, §3

S180 grafting tumor = assay: Inhibition to S180 grafting tumor in animal; format: in vivo, ICR mouse; conditions: for Body weight After administration / Tumor inhibition / Tumor weight: 7 administrations; for Tumor inhibition / Tumor weight: d8
Method: ICR mouse was inoculated with solid tumor according to tumor grafting process (tumor piece was weighed under sterile condition, homogenized with glass tissue homogenizer, placed within a sterile container, to which was added physiological saline to prepare 1:3 cell suspension. The container was placed on ice and aspirated and the cells were mixed homogeneously before each aspiration. Each mouse was inoculated subcutaneously 0.2 mL at right fore axilla). […] The mice were administered intravenously, once a day and 7 administrations in total. The administration volume was 0.4 ml/20 g. The mice bearing tumor were sacrificed 8 days after inoculation (d8). The tumor tissue was separated and weighed. The data was analyzed with statistics method (t-test).
Dose setting: 5 groups in total.

[7] = tested on: breast cancer cell line MDA231; assay: Anti-tumor activity in vitro, MTT method; conditions: Homo sapiens, MDA-MB-231, 48 h, read-out: MDA231 (IC50/μM)
Method: as §2, §3

lung cancer cell H1299 = assay: Anti-tumor activity in vitro, MTT method; format: cell-based; conditions: Homo sapiens, NCI-H1299, 48 h, read-out: H1299 (IC50/μM)
[8] = Pharmacokinetics after single oral dose in rats; format: in vivo, Wistar rat
Method: as §1
An amount of compound was taken accurately to prepare CMC-Na aqueous solution containing 3 mg/mL of drug. 12 healthy male Wister rats were randomly assigned to two groups, each group including 6 rats. The first group was administrated orally compound 1. The second group was administrated orally compound 2. The doses were both 30 mg/kg (corresponding to 2 mL for each rat). The rats were fasting for 12 h before administration and free access to water. 0.6 mL blood samples were collected at 0.5, 1, 1.5, 2, 2.5, 3, 5, 8, 12 and 24 h after drug administration from the venous sinuses and added into EP tubes which were rinsed with heparin sodium previously. The samples were centrifuged at 4,000 r/min for 15 min and the upper plasma were obtained. 300 μL plasma was subjected to analysis and the chromatogram and peak area were recorded. The plasma concentrations of compounds 1 and 2 were calculated to give average concentration-time curve.
DAS 2.0 program was used to analyze plasma concentration vs. time data after s single oral dose (Table 6, 7). Fitting and the AIC methods were used to determine the model. The analysis was based on the principle that the larger fitting and the smaller AIC, the better model. The oral administration was consistent with the two-compartment model. The statistical distance parameter is used to compare the 2 compounds for the pharmacokinetic parameters.

[9] = 7.5 mg/kg intravenously once a day
[10] = 15 mg/kg intravenously once a day
[11] = 30 mg/kg intravenously once a day
[12] = male, Wistar, plasma, rat, oral 30 mg/kg

## CN1CCN(Cc2ccc(NC(=O)c3n[nH]cc3Nc3ncnc4sccc34)cc2)CC1 [Compound I-1, 4-(4-thieno[2,3-d]pyrimidinylamino)-N-(4-((4-methyl-1-piperazinyl)methyl)phenyl)-1H-3-pyrazole carboxamide]
[1]; read-out: HCT116 (IC50/μM)
  IC50: 0.25 µM
[1]; read-out: HCT-116 (IC50/μM)
  IC50: 0.13 µM
[2]
  IC50: 3.73 µM
[3]
  IC50: 50.3 µM
[4]
  IC50: 2.54 µM
Leukemia cell line K562
  IC50: 3.2 µM
Leukemia cell line NB4
  IC50: 0.74 µM
[5]
  IC50: 2.27 µM
Plasma stability; 24 h
  plasma stability in 24 h (in words): good plasma stability
Plasma stability; Time 0 h
  Plasma stability (HPLC reading): 2.16
Plasma stability; Time 1 h
  Plasma stability (HPLC reading): 2.24
Plasma stability; Time 2 h
  Plasma stability (HPLC reading): 2.22
Plasma stability; Time 3 h
  Plasma stability (HPLC reading): 2.12
Plasma stability; Time 5 h
  Plasma stability (HPLC reading): 2.11
Plasma stability; Time 8 h
  Plasma stability (HPLC reading): 1.91
Plasma stability; Time 12 h
  Plasma stability (HPLC reading): 1.84
Plasma stability; Time 24 h
  Plasma stability (HPLC reading): 1.95
[6]
  IC50: 25.2 µM
S180 grafting tumor; [9]
  Body weight After administration: 24.00 ± 0.75 g
  Tumor inhibition: 36.94%
  Tumor weight: 0.74 ± 0.19 g
S180 grafting tumor; 7.5 mg/kg, P<0.05
  effect on S180 tumor growth compared to the model control group (in words): significant inhibitory effect
S180 grafting tumor; [10]
  Body weight After administration: 20.00 ± 1.94 g
  Tumor inhibition: 45.2%
  Tumor weight: 0.63 ± 0.11 g
S180 grafting tumor; 30 mg/kg and 15 mg/kg, P<0.01
  effect on S180 tumor growth compared to the model control group (in words): very significant inhibitory effect
S180 grafting tumor; 30 mg/kg and 15 mg/kg, P<0.05
  effect on the body weight of experimental animals (in words): significant inhibitory effect on the body weight
S180 grafting tumor; [11]
  Body weight After administration: 20.43 ± 3.20 g
  Tumor inhibition: 55.5%
  Tumor weight: 0.52 ± 0.25 g
[7]
  IC50: 5.45 µM
Lung cancer cell H1299
  IC50: 3.3 µM
[8]; [12]
  Cmax: 241 ± 103 ng/mL
  Tmax: 5.5 ± 2.29 h
  half-life: 45.8 ± 29.1 h
[8]; male, Wistar, plasma, rat, oral 30 mg/kg, read-out: AUC 0-24
  AUC(0-t): 3350 ± 468 ng·h/mL
[8]; male, Wistar, plasma, rat, oral 30 mg/kg, read-out: MRT 0-24
  MRT last: 11.6 ± 1.09 h
[8]; male, Wistar, rat, plasma, po, 30 mg/kg, mean of rats, oral 30 mg/kg, time 0.5 h, read-out: Plasma concentration, mean
  concentration at 0.5 h: 72.7 ng/mL
[8]; male, Wistar, rat, plasma, po, 30 mg/kg, mean of rats, oral 30 mg/kg, time 1 h, read-out: Plasma concentration, mean
  concentration at 1 h: 82.8 ng/mL
[8]; male, Wistar, rat, plasma, po, 30 mg/kg, mean of rats, oral 30 mg/kg, time 2 h, read-out: Plasma concentration, mean
  concentration at 2 h: 103 ng/mL
[8]; male, Wistar, rat, plasma, po, 30 mg/kg, mean of rats, oral 30 mg/kg, time 2.5 h, read-out: Plasma concentration, mean
  concentration at 2.5 h: 113 ng/mL
[8]; male, Wistar, rat, plasma, po, 30 mg/kg, mean of rats, oral 30 mg/kg, time 3 h
  concentration at 3 h: 154 ng/mL
[8]; male, Wistar, rat, plasma, po, 30 mg/kg, mean of rats, oral 30 mg/kg, time 5 h
  concentration at 5 h: 164 ng/mL
[8]; male, Wistar, rat, plasma, po, 30 mg/kg, mean of rats, oral 30 mg/kg, time 8 h, read-out: Plasma concentration, mean
  concentration at 8 h: 195 ng/mL
[8]; male, Wistar, rat, plasma, po, 30 mg/kg, mean of rats, oral 30 mg/kg, time 12 h, read-out: Plasma concentration, mean
  concentration at 12 h: 134 ng/mL
[8]; male, Wistar, rat, plasma, po, 30 mg/kg, mean of rats, oral 30 mg/kg, time 24 h
  concentration at 24 h: 123 ng/mL
[8]; male, Wistar, rat, plasma, po, 30 mg/kg, rat No. 1-6, oral 30 mg/kg, time 0.5 h, read-out: Plasma concentration, individual rats
  concentration at 0.5 h: 68.8 ng/mL
[8]; male, Wistar, rat, plasma, po, 30 mg/kg, rat No. 1-6, oral 30 mg/kg, time 1 h, read-out: Plasma concentration, individual rats
  concentration at 1 h: 105 ng/mL
[8]; male, Wistar, rat, plasma, po, 30 mg/kg, rat No. 1-6, oral 30 mg/kg, time 2 h, read-out: Plasma concentration, individual rats
  concentration at 2 h: 114 ng/mL
[8]; male, Wistar, rat, plasma, po, 30 mg/kg, rat No. 1-6, oral 30 mg/kg, time 2.5 h, read-out: Plasma concentration, individual rats
  concentration at 2.5 h: 100 ng/mL
[8]; male, Wistar, rat, plasma, po, 30 mg/kg, rat No. 1-6, oral 30 mg/kg, time 8 h, read-out: Plasma concentration, individual rats
  concentration at 8 h: 157 ng/mL
[8]; male, Wistar, rat, plasma, po, 30 mg/kg, rat No. 1-6, oral 30 mg/kg, time 12 h, read-out: Plasma concentration, individual rats
  concentration at 12 h: 108 ng/mL
[8]; rat No. 1-6, oral 30 mg/kg, time 0.5 h, 30 mg/kg
  Plasma concentration, individual rats: 68.95 ng*ml/1 and 65.08 ng*ml/1 and 76.41 ng*ml/1 and 80.51 ng*ml/1 and 76.52 ng*ml/1
[8]; rat No. 1-6, oral 30 mg/kg, time 1 h, 30 mg/kg
  Plasma concentration, individual rats: 65.58 ng*ml/1 and 73.81 ng*ml/1 and 81.17 ng*ml/1 and 80.91 ng*ml/1 and 90.92 ng*ml/1
[8]; rat No. 1-6, oral 30 mg/kg, time 2 h, 30 mg/kg
  Plasma concentration, individual rats: 97.96 ng*ml/1 and 100.94 ng*ml/1 and 86.23 ng*ml/1 and 86.97 ng*ml/1 and 132.81 ng*ml/1
[8]; rat No. 1-6, oral 30 mg/kg, time 2.5 h, 30 mg/kg
  Plasma concentration, individual rats: 96.8 ng*ml/1 and 113.35 ng*ml/1 and 104.16 ng*ml/1 and 106.91 ng*ml/1 and 158.41 ng*ml/1
[8]; rat No. 1-6, oral 30 mg/kg, time 3 h, 30 mg/kg
  Plasma concentration, individual rats: 149.67 ng*ml/1 and 112.43 ng*ml/1 and 125.86 ng*ml/1 and 78.87 ng*ml/1 and 266.46 ng*ml/1 and 191.06 ng*ml/1
[8]; rat No. 1-6, oral 30 mg/kg, time 5 h, 30 mg/kg
  Plasma concentration, individual rats: 174.04 ng*ml/1 and 159.33 ng*ml/1 and 115.59 ng*ml/1 and 172.92 ng*ml/1 and 127.6 ng*ml/1 and 232.81 ng*ml/1
[8]; rat No. 1-6, oral 30 mg/kg, time 8 h, 30 mg/kg
  Plasma concentration, individual rats: 150.59 ng*ml/1 and 233.26 ng*ml/1 and 151.83 ng*ml/1 and 271.51 ng*ml/1 and 205.77 ng*ml/1
[8]; rat No. 1-6, oral 30 mg/kg, time 12 h, 30 mg/kg
  Plasma concentration, individual rats: 135.84 ng*ml/1 and 153.29 ng*ml/1 and 135.94 ng*ml/1 and 110.59 ng*ml/1 and 162.93 ng*ml/1
[8]; rat No. 1-6, oral 30 mg/kg, time 24 h, 30 mg/kg
  Plasma concentration, individual rats: 126.6 ng*ml/1 and 105.83 ng*ml/1 and 167.23 ng*ml/1 and 133.16 ng*ml/1 and 79.81 ng*ml/1 and 123.91 ng*ml/1
[8]; rat, oral 30 mg/kg
  pharmacokinetic parameters (in words): acceptable
